Measured values: patent US20090220516A1, “Neuroprotection of retinal ganglion cells” (priority 2005, published 2009)
“And” between values parts separate entries of the source, which are not always exact repeats. Identical values can stand only once.

Assays:
[1] = system: retinal ganglion cells; assay: Intracellular Ca2+ measurements (fura-2): BzATP-triggered Ca2+ elevation in ganglion cells from mixed retinal cultures; format: cell-based, rat
Protocol: (§1) Pups PD2-6 from untimed pregnant Long-Evan rats (Jackson Laboratory Inc., Bar Harbor, Me.) were back-labeled by the injection of FluoroGold derivative aminostilbamidine (Molecular Probes, Eugene, Oreg.) based upon standard protocols. […] Using a Hamilton syringe affixed to a micromanipulator, a needle was inserted 0.8 mm lateral from the midline and 0.8 mm anterior to Bregma's line and a total of 2.5 μl dye was delivered to each side at a depth of 2 mm and 1 mm. The needle was retracted after a delay of 2 min to allow dye absorption and the wound was closed with 2-3 sutures. Preliminary examination of labeled retinal whole mounts confirmed an even distribution of dye, showing all cells were stained 2 days after injection, with no further increase in the number of labeled cells in subsequent days. Consequently, retinas containing labeled ganglion cells were dissociated 2-6 days after injection. Animals were sacrificed by i.p. injection of 50/5 mg/kg Ketamine/Xylazine followed by an overdose, in accordance with University of Pennsylvania IACUC approved protocols and the ARVO Statement on the Use of Animals in Ophthalmic and Vision Research.
The retina was dissected from each globe, washed in sterile Hanks' balanced salt solution (HBSS, Gibco, Inc Invitrogen Corp., Carlsbad, Calif.), then incubated in HBSS containing activated papain (4.5 U/ml; Worthington Biochemical Corp., Lakewood, N.J.) for 12 minutes at 37° C. Retinas were washed twice and triturated 50 times with a 1-ml glass pipette to dissociate cells. Cells were plated onto twelve 12-mm coverslips previously coated with poly-L-lysine. The basic growth medium contained Neurobasal medium with 2 mM glutamine, 100 μg/ml gentamicin, 0.025 ml/ml B27 supplement (all Invitrogen Inc., Carlsbad, Calif.), 0.7% methylcellulose (Stemcell Technologies Inc., Vancouver, BC, Canada) and 2.5% rat serum (Cocalico Biologicals Inc., Reamstown, Pa.). Retinal cells were incubated at 37° C. with 5% CO2.
(§2) Unlabeled RGCs grown on coverslips for 24 hrs were loaded with 10 μM fura-2 and 2% pluoronic (Molecular Probes, Eugene, Oreg.) for 60-90 min at room temperature, rinsed and maintained in fura-2-free solution for 30 min before data acquisition began. The coverslips were mounted on a Nikon Diaphot inverted microscope and visualized with a 40× objective. […] To obtain Ca^2+ measurements, the field was alternatively excited at 340 nm and 380 nm with a scanning monocrometer and the fluorescence emitted >520 nm from a region of interest surrounding individual retinal ganglion cells was imaged with a CCD camera and analyzed (all Photon Technologies International, Inc., Lawrenceville, N.J.). Cells were perfused with a control solution at the start of Ca^2+imaging experiments containing (in mM) 105 NaCl, 4.5 KCl, 2.8 NaHepes, 7.2 Hepes acid, 1.3 CaCl2, 0.5 MgCl2, 5 glucose, 75 mannitol, pH 7.4. Drugs were dissolved into the control solution. Calibration was performed separately on each cell after the experiment by perfusing cells in the presence of 5 μM ionomycin and control solution (with 1.3 mM Ca2+) followed by ionomycin in the base solution without Ca^2+ and with the addition of 5 mM EGTA (pH 7.4). The 340/380 ratio was converted to Ca^2+ concentration as previously described. All experiments were performed at room temperature.
In Ca^2+ experiments, n refers to the number of responses tested. The BzATP concentration-response curve was fit with a standard exponential function y=y0+ae(−bx) using Sigmaplot software (SPSS Inc, Chicago, Ill.). The % block of Ca2+ elevations is defined as 100*(a−b)/a, where a is the response under control conditions and b is the response under experimental conditions. All materials are from Sigma Chemical Corp, (St. Louis, Mo.) unless otherwise indicated.

[2] = system: retinal ganglion cells; assay: Cell viability studies: labeled retinal ganglion cells surviving after 24 hrs in mixed retinal cultures; format: cell-based, rat; settings: for reduction in the number of dead cells / protection against cell death triggered by BzATP: 50 uM BzATP + 100 nM A3 agonist
Protocol: as §1
The retina was dissected from each globe, washed in sterile Hanks' balanced salt solution (HBSS, Gibco, Inc Invitrogen Corp., Carlsbad, Calif.), then incubated in HBSS containing activated papain (4.5 U/ml; Worthington Biochemical Corp., Lakewood, N.J.) for 12 minutes at 37° C. Retinas were washed twice and triturated 50 times with a 1-ml glass pipette to dissociate cells. Cells were plated onto twelve 12-mm coverslips previously coated with poly-L-lysine. […] Retinal cells were incubated at 37° C. with 5% CO2.
Drugs were added to the culture medium at the time when cells were plated onto coverslips. […] All counts were performed in a masked fashion. In experiments involving antagonist pretreatment, drugs were added to the medium at the time of plating. After preincubation at 37° C., stock concentrations of BzATP were added directly to the cells to give the final concentration shown.
Data are presented as mean±standard error of the mean. Significance was evaluated using a Student's unpaired t test, with a p value <0.05 signifying significance. For cell viability studies, the number of experiments, n, represents the number of coverslips from which 80 fields were measured and averaged. All values were normalized to the mean control level for that day's matched set of experiments to control for variation in plating efficiency.

[3] = system: isolated retinal ganglion cells; assay: Intracellular Ca2+ measurements: BzATP-triggered Ca2+ elevation in isolated (immunopanned) retinal ganglion cells; format: cell-based, rat; settings: 50 μM BzATP 15 sec, purified ganglion cells
Protocol: as §2
(§3) Purification of ganglion cells using the panning procedure is based upon published methods (Hartwick et al., 2004). Neonatal rat retinas (PD 7-12) were dissected and incubated at 37° C. for 30 min in HBSS containing 15 U/mL papain, 0.2 mg/mL DLcysteine and 0.004% DNAse I (Worthington/Cooper, Lakewood, N.J.). The tissue was triturated in HBSS with 1.5 mg/ml ovomucoid (Worthington/Cooper, Lakewood, N.J.), 1.5 mg/ml BSA and 0.004% DNase I, centrifuged at 200 g for 11 minutes at room temperature, and cells were rewashed with 10 mg/ml ovomucoid-BSA solution. After centrifugation, cells were resuspended with PBS containing 0.2 mg/ml BSA and 5 μg/ml insulin and filtered through a Nitex mesh (Small Parts Inc, Miami Lakes, Fla.). […]

[4] = system: isolated ganglion cells; assay: Glutamate release from isolated ganglion cells (GDH/NADH fluorescence); format: cell-based, rat
Protocol: as §3
The measurement of glutamate was analogous to that used previously by the Haydon laboratory. […] NADH fluorescence is excited using a xenon arc lamp (100 watts) with a D360/10x exciter filter (Chroma Technology Corp., Brattleboro, Vt.), 510DRLP dichroic mirror (Omega Optical, Brattleboro, Vt.), and 515EFLP emission filter (Omega Optical). Images collected before, during and after the BzATP stimulus indicate the level of fluorescence. The percent increase in fluorescence, figured by dividing the change in fluorescence (ΔF) by the fluorescence level before stimulation (F0), represents the level of glutamate release. […]

[5] = target: T1, human A2B receptors (Homo sapiens, UniProt P29275); settings: cited from earlier work
T1 sequence (P29275 1-332): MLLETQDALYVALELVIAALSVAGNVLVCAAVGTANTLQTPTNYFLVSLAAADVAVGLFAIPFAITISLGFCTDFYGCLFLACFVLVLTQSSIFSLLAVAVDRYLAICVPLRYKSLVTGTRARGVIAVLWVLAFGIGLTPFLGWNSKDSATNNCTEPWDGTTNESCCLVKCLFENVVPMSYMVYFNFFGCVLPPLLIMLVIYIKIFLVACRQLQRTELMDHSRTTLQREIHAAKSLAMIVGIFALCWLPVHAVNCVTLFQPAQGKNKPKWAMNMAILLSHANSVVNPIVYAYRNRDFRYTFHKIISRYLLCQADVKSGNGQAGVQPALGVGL

[6] = 50 uM BzATP + 100 nM A3 agonist (30 min before and during), 24 hrs

N[C@@H](CCCP(=O)(O)O)C(=O)O [APV, D-amino-phosphonovalerate]
mean reduction of Ca2+ elevation triggered by BzATP ([1]; APV (100 μM in FIG. 2C, 300 μM in summary), 50 μM BzATP 15 sec): 39.7±12.6% | ganglion cell survival levels ([2]; 50 μM BzATP + APV, 24 hrs): 77.8±5.9% | block of Ca2+ response to BzATP ([3]; 100 μM APV): 36.1±7.5%

Nc1ncnc2c1ncn2[C@@H]1O[C@H](COP(=O)(O)OP(=O)(O)OP(=O)(O)O)[C@@H](OC(=O)c2ccc(C(=O)c3ccccc3)cc2)[C@H]1O [BzATP]
mean levels of Ca2+ ([1]; first exposure to 50 μM BzATP alone, 15 sec): 647.0 ± 80.7 nM | mean levels of Ca2+ ([1]; third exposure to BzATP after removal of CI-IB-MECA): 600.3 ± 227.6 nM | ganglion cell survival, % of control ([2]; 50 μM BzATP alone, 24 hrs): 62.9 % of control and 68.9±2.3 % of control and 56.8 % of control and 79.0±2.9 % of control | increase in absorbance at 360 nm (glutamate release) ([4]; BzATP alone, 17 applications from 7 coverslips): 17.1±4.0%

CNC(=O)C1OC(n2cnc3c(NCc4cccc(I)c4)nc(Cl)nc32)C(O)C1O (stereo not shown) [CI-IB-MECA, 2-chloro-N6-(3-iodobenzyl)-adenosine-5-N-methyluronamide]
Kd [5]: > 100 µM | block of Ca2+ increase, normalized to peak of first response ([1]; 100 nM CI-IB-MECA, 50 μM BzATP 15 sec): 81% | mean levels of Ca2+ ([1]; second BzATP application in presence of 100 nM CI-IB-MECA): 110.7 ± 32.8 nM | ganglion cell survival, % of control [2, 6]: 80.1±4.7 % of control | reduction in the number of dead cells / protection against cell death triggered by BzATP ([2]; 24 hrs): 54%

CNC(=O)[C@H]1O[C@@H](n2cnc3c(NCc4cccc(I)c4)ncnc32)[C@H](O)[C@@H]1O [IB-MECA]
ganglion cell survival, % of control [2, 6]: 98.5±2.7 % of control | reduction in the number of dead cells / protection against cell death triggered by BzATP ([2]; 24 hrs): 95%

C[C@]12N[C@H](Cc3ccccc31)c1ccccc12 [MK-801]
decrease of Ca2+ elevation triggered by BzATP ([1]; 10 μM MK-801, 50 μM BzATP 15 sec, peak vs mean response before and after): 55.1±6.5% | ganglion cell survival, % of control ([2]; 50 μM BzATP + 10 μM MK-801, 24 hrs): 102.7±3.2 % of control | decrease of Ca2+ elevation triggered by BzATP ([3]; 10 μM MK-801): 50.1±5.5%

CN[C@H](CC(=O)O)C(=O)O [NMDA, N-methyl-D-aspartate]
ganglion cell survival, % of control ([2]; 100 uM NMDA alone, 24 hrs): 69.9±3.2 % of control

Nc1ncnc2c1ncn2[C@@H]1O[C@H](CO)[C@@H](O)[C@H]1O [adenosine]
block of Ca2+ increase compared to BzATP alone ([1]; 300 uM adenosine, two minute 50 uM BzATP): 85% | effect on Ca2+ response to brief 50 uM BzATP ([1]; adenosine added with alternate BzATP applications, reversible, repeatable): greatly reduced the response | peak Ca2+ levels ([1]; two minute application of 50 uM BzATP in presence of 300 uM adenosine (2 min pretreatment), n=7): 215 ± 62 nM | ganglion cell survival ([2]; 50 μM BzATP + 300 uM adenosine (30 min before), 24 hours): 91.2±3.5% | ganglion cell survival, % of control ([2]; 50 μM BzATP + 1 mM adenosine, 24 hours): 92.4±2.5 % of control | ganglion cell counts, % of control ([2]; 100 uM NMDA + 300 uM adenosine, 24 hrs): 102.1±3.9 % of control

CCOc1ccc(Nc2ccc(/C(=C3C=C/C(=[N+](/CC)Cc4cccc(S(=O)(=O)[O-])c4)C=C/3C)c3ccc(N(CC)Cc4cccc(S(=O)(=O)[O-])c4)cc3C)cc2)cc1.[Na+] [brilliant blue G]
net absorbance change (glutamate release) in response to BzATP ([4]; in presence of brilliant blue G, n=3): −0.9±0.9%

CC12CC3CC(C)(C1)CC(N)(C3)C2 [memantine]
reduction of Ca2+ elevation triggered by BzATP ([1]; 30 μM memantine, in 4/7 experiments, effect variable, 50 μM BzATP): 65.5±6.7% | effect on ganglion cell survival ([2]; 50 μM BzATP + 100 μM memantine, 24 hrs): neuroprotective | inhibition at 30 µM ([3]; Rattus norvegicus, 30 μM memantine, read-out: inhibition of Ca2+ response to BzATP): 18.4 ± 4.2%
